From ChEMBL document CHEMBL1155393, “Rational design of potent GSK3beta inhibitors with selectivity for Cdk1 and Cdk2” (Bioorg Med Chem Lett, 2010)

The compounds below were run against Glycogen synthase kinase-3 beta (Homo sapiens, UniProt P49841) (assay: Inhibition of human recombinant GSK3-beta using gamma[33P]-ATP after 30 mins by scintillation proximity assay).
Glycogen synthase kinase-3 beta, sequence (P49841 whole entry): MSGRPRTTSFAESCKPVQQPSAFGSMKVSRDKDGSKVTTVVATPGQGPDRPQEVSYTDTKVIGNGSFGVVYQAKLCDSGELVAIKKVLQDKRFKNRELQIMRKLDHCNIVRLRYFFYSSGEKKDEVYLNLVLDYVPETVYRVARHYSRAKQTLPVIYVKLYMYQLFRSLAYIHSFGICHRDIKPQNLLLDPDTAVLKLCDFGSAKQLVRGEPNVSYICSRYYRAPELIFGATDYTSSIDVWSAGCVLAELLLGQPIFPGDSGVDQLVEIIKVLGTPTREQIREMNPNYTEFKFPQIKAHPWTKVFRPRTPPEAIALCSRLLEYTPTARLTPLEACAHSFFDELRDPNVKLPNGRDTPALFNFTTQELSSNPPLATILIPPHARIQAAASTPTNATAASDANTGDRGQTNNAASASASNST

IC50	SMILES
1180 nM	CCCC(=O)Nc1n[nH]c2cc(-c3ccc(OCc4ccccc4)cc3)ccc12
5410 nM	CCCC(=O)Nc1n[nH]c2cc(-c3cc(Cl)cc(Cl)c3)ccc12
1350 nM	CCCC(=O)Nc1n[nH]c2cc(-c3ccccc3Cl)ccc12
12200 nM	CCCC(=O)Nc1n[nH]c2cc(-c3ccc(N(C)C)cc3)ccc12
14 nM	CCCC(=O)Nc1n[nH]c2cc(-c3ccc(O)cc3)c(-c3ccco3)cc12
76 nM	CCCC(=O)Nc1n[nH]c2cc(-c3ccc(N)cc3)ccc12
17100 nM	Cc1ccc(-c2ccc3c(NC(=O)CCC(=O)O)n[nH]c3c2)cc1
55 nM	CCCC(=O)Nc1n[nH]c2cc(-c3ccc(O)cc3Cl)ccc12
260 nM	CCCC(=O)Nc1n[nH]c2cc(-c3ccoc3)ccc12
12 nM	CCCC(=O)Nc1n[nH]c2c(Cl)c(Cl)c(-c3ccccc3)cc12
44 nM	CCCC(=O)Nc1n[nH]c2cc(-c3ccc(O)cc3)ccc12
94 nM	CCCC(=O)Nc1n[nH]c2cc(-c3cccc(O)c3)ccc12
1720 nM	CCCC(=O)Nc1n[nH]c2cc(-c3ccccc3)c(-c3ccccc3)cc12
1090 nM	CCCC(=O)Nc1n[nH]c2cc(-c3ccc(N)nc3)ccc12
195 nM	CCCC(=O)Nc1n[nH]c2cc(C(F)(F)F)ccc12
5010 nM	CCCC(=O)Nc1n[nH]c2cc(-c3ccc(F)cc3)ccc12
2460 nM	C/C=C/c1ccc2c(NC(=O)CCC)n[nH]c2c1
7 nM	CCCC(=O)Nc1n[nH]c2cc(Cl)c(-c3ccccc3)cc12
2890 nM	CCCC(=O)Nc1n[nH]c2cc(-c3cc(F)cc(F)c3)ccc12
5 nM	CCCC(=O)Nc1n[nH]c2cc(-c3ccc(O)cc3)c(Br)cc12
> 100000 nM	CCCC(=O)Nc1n[nH]c2cc(-c3ccc(OC)cc3)ccc12
935 nM	CCCC(=O)Nc1n[nH]c2cc(-c3ccsc3)ccc12
50 nM	CCCC(=O)Nc1n[nH]c2cc(Cl)c(-c3ccncc3)cc12
22 nM	CCCC(=O)Nc1n[nH]c2cc(Cl)c(-c3ccc(F)cc3)cc12
49 nM	CCCC(=O)Nc1n[nH]c2cc(-c3ccc(O)cc3)c(-c3ccc(CC)cc3)cc12
20500 nM	N#Cc1ccc(-c2ccc3c(NC(=O)CCC(=O)O)n[nH]c3c2)cc1
> 100000 nM	CCCC(=O)Nc1n[nH]c2cc(-c3ccc(CC)cc3)ccc12
149 nM	CCCC(=O)Nc1n[nH]c2cc(-c3ccc(O)cc3)c(-c3cccnc3)cc12

IC50	SMILES
55 nM	CCCC(=O)Nc1n[nH]c2cc(-c3ccc(O)cc3)c(-c3ccccc3)cc12
12 nM	CCCC(=O)Nc1n[nH]c2cc(Cl)c(-c3ccc(CC)cc3)cc12
6 nM	CCCC(=O)Nc1n[nH]c2c(F)c(Cl)c(-c3ccccc3)cc12
11 nM	CCCC(=O)Nc1n[nH]c2cc(Cl)c(-c3ccoc3)cc12
16800 nM	CCCC(=O)Nc1n[nH]c2cc(-c3ccc(O)nc3)ccc12
27 nM	CCCC(=O)Nc1n[nH]c2cc(-c3ccc(O)c(O)c3)ccc12
4140 nM	CCCC(=O)Nc1n[nH]c2cc(Cc3ccccc3)ccc12
> 100000 nM	CCCC(=O)Nc1n[nH]c2cc(-c3ccc(Cl)cc3)ccc12
5500 nM	CCCC(=O)Nc1n[nH]c2cc(-c3ccc(OC(F)(F)F)cc3)ccc12
661 nM	CCCC(=O)Nc1n[nH]c2cc(-c3ccncc3)ccc12
1180 nM	O=C(O)CCC(=O)Nc1n[nH]c2cc(Cl)ccc12
> 100000 nM	CCCC(=O)Nc1n[nH]c2cc(-c3ccc([N+](=O)[O-])cc3)ccc12
10 nM	CCCC(=O)Nc1n[nH]c2cc(Cl)c(-c3ccc(O)cc3)cc12
354 nM	CCCC(=O)Nc1n[nH]c2cc(Cl)ccc12
8530 nM	CCCC(=O)Nc1n[nH]c2cc(CCc3ccccc3)ccc12
> 10000 nM	CCCC(=O)Nc1n[nH]c2cc(-c3ccc(Oc4ccccc4)cc3)c(-c3ccc(Oc4ccccc4)cc3)cc12
14 nM	CCCC(=O)Nc1n[nH]c2cc(Cl)c(-c3ccc(C)cc3)cc12
8 nM	CCCC(=O)Nc1n[nH]c2cc(Cl)c(-c3ccc(N)cc3)cc12
56 nM	CCCC(=O)Nc1n[nH]c2cc(-c3ccc(O)cc3)c(-c3ccc(O)cc3)cc12
23 nM	CCCC(=O)Nc1n[nH]c2cc(Cl)c(-c3ccc(OCc4ccccc4)cc3)cc12
7160 nM	CCCC(=O)Nc1n[nH]c2cc(-c3ccc(SC)cc3)ccc12
98 nM	CCCC(=O)Nc1n[nH]c2cc(-c3ccc(O)cc3)c(-c3ccoc3)cc12
1280 nM	CCCC(=O)Nc1n[nH]c2cc(-c3ccccc3)ccc12
198 nM	CCCC(=O)Nc1n[nH]c2cc(Br)ccc12
3810 nM	CCCC(=O)Nc1n[nH]c2cc(-c3ccc(C(C)(C)C)cc3)ccc12
10500 nM	CCCC(=O)Nc1n[nH]c2cc(-c3ccc(C(F)(F)F)cc3)ccc12
18 nM	CCCC(=O)Nc1n[nH]c2cc(Cl)c(-c3ccc([N+](=O)[O-])cc3)cc12

SMILES	IC50
CCCC(=O)Nc1n[nH]c2cc(-c3ccc4c(c3)COO4)ccc12	25000 nM

These compounds were tested against Cyclin-dependent kinase 1 (Homo sapiens, UniProt P06493) (assay: Inhibition of Cdk1).
Cyclin-dependent kinase 1, sequence (P06493 whole entry): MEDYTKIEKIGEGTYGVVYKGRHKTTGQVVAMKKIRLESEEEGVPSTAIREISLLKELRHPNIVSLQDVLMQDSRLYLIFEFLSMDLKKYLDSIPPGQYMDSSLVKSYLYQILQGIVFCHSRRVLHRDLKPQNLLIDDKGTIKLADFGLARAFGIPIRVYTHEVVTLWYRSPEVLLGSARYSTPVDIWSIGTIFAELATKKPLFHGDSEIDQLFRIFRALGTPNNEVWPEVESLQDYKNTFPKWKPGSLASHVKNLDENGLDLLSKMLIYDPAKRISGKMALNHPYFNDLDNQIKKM

IC50	SMILES
100 nM	CCCC(=O)Nc1n[nH]c2cc(Cl)c(-c3ccccc3)cc12
2500 nM	CCCC(=O)Nc1n[nH]c2c(F)c(Cl)c(-c3ccccc3)cc12

The compounds below were run against Aurora kinase A (Homo sapiens) (UniProt O14965) (assay: Inhibition of Aurora kinase 2).
Aurora kinase A (Homo sapiens), sequence (O14965 whole entry, looked up): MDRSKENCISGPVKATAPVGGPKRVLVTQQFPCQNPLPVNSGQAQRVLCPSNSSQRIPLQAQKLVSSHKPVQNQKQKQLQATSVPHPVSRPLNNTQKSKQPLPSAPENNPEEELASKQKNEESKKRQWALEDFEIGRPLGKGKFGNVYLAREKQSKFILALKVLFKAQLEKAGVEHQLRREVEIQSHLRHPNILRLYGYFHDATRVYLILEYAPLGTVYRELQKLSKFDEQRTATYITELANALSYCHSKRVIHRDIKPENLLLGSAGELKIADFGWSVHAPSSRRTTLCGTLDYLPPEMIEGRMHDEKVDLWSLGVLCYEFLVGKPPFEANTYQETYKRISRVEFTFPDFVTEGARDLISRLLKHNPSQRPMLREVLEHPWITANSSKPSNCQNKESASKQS

IC50	SMILES
> 30000 nM	CCCC(=O)Nc1n[nH]c2cc(-c3ccc(O)cc3)ccc12

These compounds were tested against Microtubule-associated protein tau (Rattus norvegicus, UniProt P19332) (assay: Inhibition of Tau phosphorylation in rat cerebral cortex after 120 mins by chemiluminescence assay).
Assay type: tissue-based

Microtubule-associated protein tau, sequence (P19332 whole entry): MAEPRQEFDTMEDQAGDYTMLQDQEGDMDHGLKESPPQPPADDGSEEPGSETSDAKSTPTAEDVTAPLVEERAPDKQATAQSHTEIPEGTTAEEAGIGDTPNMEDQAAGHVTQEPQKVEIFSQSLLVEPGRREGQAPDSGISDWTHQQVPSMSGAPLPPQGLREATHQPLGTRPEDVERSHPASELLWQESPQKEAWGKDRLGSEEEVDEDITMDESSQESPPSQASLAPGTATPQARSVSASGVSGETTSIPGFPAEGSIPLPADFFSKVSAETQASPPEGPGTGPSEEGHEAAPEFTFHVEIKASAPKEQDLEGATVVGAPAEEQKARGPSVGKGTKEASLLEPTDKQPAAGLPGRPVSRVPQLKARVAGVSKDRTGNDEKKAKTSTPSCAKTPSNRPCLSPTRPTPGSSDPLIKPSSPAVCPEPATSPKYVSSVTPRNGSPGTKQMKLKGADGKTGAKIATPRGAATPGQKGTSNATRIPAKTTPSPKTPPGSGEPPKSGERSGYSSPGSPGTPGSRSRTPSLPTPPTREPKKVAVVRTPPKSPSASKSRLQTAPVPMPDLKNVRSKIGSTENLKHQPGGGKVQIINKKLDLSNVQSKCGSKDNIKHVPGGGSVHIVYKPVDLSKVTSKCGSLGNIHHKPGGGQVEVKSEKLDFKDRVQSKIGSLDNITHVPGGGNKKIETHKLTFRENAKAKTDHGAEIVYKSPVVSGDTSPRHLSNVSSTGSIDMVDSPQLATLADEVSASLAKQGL

IC50	SMILES
400 nM	CCCC(=O)Nc1n[nH]c2cc(Cl)c(-c3ccccc3)cc12
250 nM	CCCC(=O)Nc1n[nH]c2c(F)c(Cl)c(-c3ccccc3)cc12

Each compound was assayed against Cyclin-dependent kinase 2 (Homo sapiens, UniProt P24941) (assay: not given).

IC50	SMILES
> 10000 nM	CCCC(=O)Nc1n[nH]c2c(Cl)c(Cl)c(-c3ccccc3)cc12
3160 nM	CCCC(=O)Nc1n[nH]c2c(F)c(Cl)c(-c3ccccc3)cc12
